Experimental data published in patent publication US20040063843A1, “Coating solutions” (Honeywell International, Inc., priority 2002, published 2004).

What was measured:
[1] = Surface tension measurement, Nouy ring method; type: physicochemical; conditions: 20 ml aliquot, Kruss Model K 10 ST; liquid carrier tetrafluoropropanol, no coating moiety
Method: Samples of coating solution (Examples 8, 9, 10, and 11) were prepared by blending in a vessel a measured volume of a liquid carrier (tetrafluoropropanol) and a fluorocarbon surface tension-reducing agent (1,1,1,3,3-pentafluoropropane, HFC245fa) to give the Vol. % compositions indicated in Table 3, below.
Surface tension was measured using the Nouy ring method and a Kruss Instrument Model K 10 ST.
In a typical determination, a 20 ml aliquot of the liquid to be tested was placed in the instrument and the surface tension was measured by the published procedure described above. Measurements were carried out for neat tetrafluropropanol (a liquid carrier, Table 3, Comparative Example #3), neat 1,1,1,3,3-pentafluropropane (HFC245fa, as a fluorocarbon surface tension-reducing agent, Table 3, Example # 11), and coating solution formulations (sans a coating moiety) comprising mixtures of tetrafluropropanol with 25 Vol. %, 50 Vol. %, and 75 Vol. % 1,1,1,3,3-pentafluropropane (Table 3, Examples 8, 9 and 10 respectively).

[2] = type: physicochemical
Method: Coating solvent was prepared by blending in a vessel a measured volume of a liquid carrier (tetrafluoropropanol) and as a surface tension-reducing agent 1,1,1,3,3-pentafluoropropane (HFC245fa) to give a solvent having the constituent volumetric ratios shown in Table I, below.
Solubility was determined by adding dye powder slowly to a weighed 100 ml aliquot of the coating solvent in a vessel. The solvent was stirred to dissolve the dye. When no more dye would dissolve, the dye addition was stopped and the solvent reweighed to determine the amount of dye that had been dissolved in the solvent.

Compound	Surface Tension [1]	Dye A Solubility [2]	Dye B Solubility [2]
FC(F)CC(F)(F)F [Example # 11, 1,1,1,3,3-pentafluropropane]	18 mN/m		
Tetrafluoropropanol [compound 1]		10.7 g/100 ml	11.3 g/100 ml
